{"source": "patent US12128173B2", "about": "“Dry powder drug delivery system and methods” (MannKind Corporation, priority 2012, dated 2024)", "key": {"[1]": {"assay": "In vitro powder emptying and VMGD, DPI 2 vs MTDS (Example 7)", "assay_type": "physicochemical", "conditions": "4 kPa", "excerpt": "In vitro powder performance for these systems was compared for various parameter of inhaler performance. For DPI 2 a single discharge per cartridge was used as compared to two discharges per cartridge in the MEDTONE® system.\nParticle sizing by laser diffraction and quantification of emitted mass as described above were used in these experiments. A laser diffraction instrument (Sympatec HELOS) was adapted with a novel pressurized inhaler chamber to facilitate analysis of powder plumes. MTDS cartridges were discharged twice per determination versus once with DPI 2."}, "[2]": {"assay": "VMGD and container emptying by laser diffraction, DPI 2 vs MEDTONE (Example 6)", "assay_type": "physicochemical", "conditions": "SSA 55, 4 kPa", "excerpt": "Typically, the geometric size of the emitted powder includes a volumetric distribution characterized by the median particle size, VMGD."}, "[3]": {"assay": "O-series vs U-series inhaler: discharge and particle size of crystalline and amorphous powders (Example 14)", "assay_type": "physicochemical", "conditions": "fill 25 mg, 4 kPa; for X84 avg: in µm (unit assumed)", "procedure": "These experiments were conducted to test various inhaler designs in trying to improve percent dose discharge or increase device emptying to acceptable ranges for certain types of powders used. […] In these experiments, therefore, two types of dry powder inhalers were designed and built. An O-series (FIGS. 49 and 50) dry powder inhaler wherein the inhaler comprises rigid conduits which generate a tumbling, recirculating action of an airflow through the powder container during an inhalation in an O-shape prior to the airflow exiting the container. A second inhaler or U-series was also designed and built for comparison wherein the dry powder inhaler comprised a rigid air conduit through the container substantially U-shaped and configured with a deflector so that in use an airflow entering the container redirects the airflow within the container void or space in a U-shape/semilunar path or downwardly prior to exiting the container. Powders tested were either crystalline or amorphous.\nThe rigid flow conduits as illustrated in FIGS. 49 and 51 can be adapted to any type of dry powder inhaler for delivering different types of powder compositions. In these experiments, crystalline and amorphous powders were tested with the two types of air flow conduits designed into the same type of inhalers, a single use disposable. […] Inhaler performance was tested and evaluated from measurements using various parameters, such as pressure differential, powder content prior to and after testing of various powders via a simulated single inhalation. The particle size distribution of the discharged powder plume for each inhaler used was also measured as described in Example 7 above."}, "[4]": {"assay": "Powder flowability: Hausner ratio, compressibility (Carr's) index, angle of repose, critical orifice", "assay_type": "physicochemical", "from_the_text": "FDKP microparticles either unmodified or containing a drug, for example insulin, constitute highly cohesive powders."}, "[5]": {"assay": "FDKP pharmacokinetics after inhalation, DPI 1 vs MEDTONE (Example 8)", "assay_type": "in vivo, healthy volunteers", "from_the_text": "The MEDTONE® inhaler system was used for comparison. […] Powder used were crystalline powder formulations.\nDuring an inhalation maneuver, the patient was instructed to maintain a nominal pressure differential of 4-6 kPa combined with a short inhalation of 3-4 seconds or a long inhalation of 6-7 seconds. To generate a “hard” inhalation, the subject provided a nominal inhalation time of about 6.5 seconds and a peak pressure of 7 kPa. Conversely, to generate an “easy” inhalation, the subject provided a nominal inhalation time of about 6.5 seconds and a peak pressure of 5 kPa. Coupled with the inhalation monitoring apparatus, gravimetric assessment of the powder mass discharged from the cartridge was performed. This enabled a linkage between inhalation maneuver during dosing, cartridge discharge mass and pharmacokinetic profile determinations for each subject.\nThe study was an open-label, crossover, 2-part study in healthy volunteers.\nPart 2 was carried out as a 2-part, 2-way crossover study for evaluating the effect of flow rate (15 versus 30 LPM) and inhalation time (3 versus 6 seconds). For each parameter tested (i.e., flow rate, and inhalation time), ten subjects were crossed over for each parameter with 20 subjects total for all of the parameters. Pharmacokinetics of FDPK was assessed with each treatment from blood samples taken from the subjects."}, "[6]": {"assay": "FDKP bioavailability versus intravenous bolus of radiolabeled FDKP", "conditions": "model analysis"}, "Solubility of FDKP by pH": {"assay": "Solubility of FDKP by pH", "assay_type": "physicochemical"}, "[7]": {"assay": "Post prandial glucose excursions during meal challenges", "assay_type": "in vivo, healthy volunteers", "conditions": "DPI 2 vs MEDTONE, doses not titrated"}}, "data": [{"compound": "O=C(O)/C=C/C(=O)NCCCCC1NC(=O)C(CCCCNC(=O)/C=C/C(=O)O)NC1=O", "note": "(stereo not drawn) [FDKP, 3,6-bis(N-fumaryl-4-aminobutyl)-2,5-diketopiperazine]", "values": [{"measurement": "Ave. VMGD", "setting": "[1]; DPI 2, fill 10 mg, single discharge", "result": 6.84, "unit": "μm"}, {"measurement": "Ave. VMGD", "setting": "[1]; MEDTONE (MTDS), fill 10 mg FDKP, two discharges", "result": 21.21, "unit": "μm"}, {"measurement": "VMGD", "setting": "[2]; DPI 2, 56% trans", "result": 6.800, "unit": "micron"}, {"measurement": "VMGD", "setting": "[2]; MEDTONE, 56% trans", "result": 21.200, "unit": "micron"}, {"measurement": "X16 avg", "setting": "[3]; Sample 1, O-series", "result": 1.9, "unit": "µm"}, {"measurement": "X50 avg", "setting": "[3]; Sample 1, O-series", "result": 6.86, "unit": "μm"}, {"measurement": "X84 avg", "setting": "[3]; Sample 1, O-series", "result": 21.55}, {"measurement": "X16 avg", "setting": "[3]; Sample 2, U-series", "result": 2.76, "unit": "µm"}, {"measurement": "X50 avg", "setting": "[3]; Sample 2, U-series", "result": 11.19, "unit": "μm"}, {"measurement": "X84 avg", "setting": "[3]; Sample 2, U-series", "result": 36.51}, {"measurement": "angle of repose", "setting": "[4]", "result": 40, "unit": "°"}, {"measurement": "better delivery of FDKP into the systemic circulation than MEDTONE", "setting": "[5]; DPI 1 vs MEDTONE", "result": "about 30%"}, {"measurement": "AVG mean AUC fdkp per emitted fdkp mass", "setting": "[5]; Part 1, DPI 1, 10 mg, nominal time and inhalation effort", "result": 3495, "unit": "ng*min/mL*mg fdkp"}, {"measurement": "AVG mean AUC fdkp per emitted fdkp mass", "setting": "[5]; Part 1, MT (MEDTONE), 10 mg, nominal time and inhalation effort", "result": 1934, "unit": "ng*min/mL*mg fdkp"}, {"measurement": "AVG mean AUC fdkp per emitted fdkp mass", "setting": "[5]; Part 2, DPI 1, 10 mg, long inhalation time", "result": 3289, "unit": "ng*min/mL*mg fdkp"}, {"measurement": "AVG mean AUC fdkp per emitted fdkp mass", "setting": "[5]; Part 2, DPI 1, 10 mg, short inhalation time", "result": 3310, "unit": "ng*min/mL*mg fdkp"}, {"measurement": "% of the FDKP delivered into the systemic circulation", "setting": "[6]; DPI 2, single inhalation, 6.7 mg total fill FDKP-insulin (FDKP about 6 mg)", "result": 64, "unit": "%"}, {"measurement": "% of the FDKP delivered into the systemic circulation", "setting": "[6]; MEDTONE, two inhalations, FDKP-insulin formulation", "result": 46, "unit": "%"}, {"measurement": "solubility", "setting": "Solubility of FDKP by pH; at neutral or basic pH", "result": "readily soluble"}, {"measurement": "solubility", "setting": "Solubility of FDKP by pH; in acid", "result": "low solubility"}]}, {"compound": "insulin", "values": [{"measurement": "post prandial glucose excursions", "setting": "[7]", "result": "generally comparable glucose excursions"}]}]}
